Results from BindingDB's records for doi:10.1021/jm00098a008 (University of Minnesota, 1992).

Biological target: Alcohol dehydrogenase 1 (Saccharomyces cerevisiae) (UniProt P00330)
Experiment: Inhibitory activity against yeast alcohol dehydrogenase

Alcohol dehydrogenase 1 (Saccharomyces cerevisiae), sequence (P00330 whole entry, looked up): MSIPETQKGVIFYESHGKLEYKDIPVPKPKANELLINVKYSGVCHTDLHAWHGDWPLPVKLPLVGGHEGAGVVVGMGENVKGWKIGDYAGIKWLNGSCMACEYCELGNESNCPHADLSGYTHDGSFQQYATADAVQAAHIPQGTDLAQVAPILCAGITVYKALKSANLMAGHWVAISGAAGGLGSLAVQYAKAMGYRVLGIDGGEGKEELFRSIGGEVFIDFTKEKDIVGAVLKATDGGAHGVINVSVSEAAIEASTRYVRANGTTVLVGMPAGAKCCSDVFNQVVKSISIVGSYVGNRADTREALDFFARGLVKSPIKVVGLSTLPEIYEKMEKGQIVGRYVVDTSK

For `N#CN(OC(=O)c1ccccc1)C(=O)c1ccccc1`, the IC50 was 25 µM.
With `CC(=O)ON(C(C)=O)S(=O)(=O)c1ccc(Cl)cc1` the IC50 was 39 µM.
